Here are results for one molecule from publication PMC10874388, “Cyclic peptides discriminate BCL-2 and its clinical mutants from BCL-XL by engaging a single-residue discrepancy” (Nature Communications, 2024).

In this test the test system is A549 cells overexpressing BCL-2 G101V. The experiment in a line: Cell viability assay, A549 stably overexpressing BCL-2 G101V. It is filed as cell-based. The following applies: A549 BCL2/G101V, single wells. The protocol:
Cell viability was measured using CellTiter-Glo® 2.0 Reagent (Promega, G9242). […] After different inhibitors were added into serum-free medium and cultured for 4 h (RS4:11 for 6 h), FBS were supplemented to 10% and then incubated totally for 24 h or 48 h. Finally, the IC50 values were calculated based on measurements using a microplate reader (Thermo, Varioskan LUX). Statistical analysis was performed using software GraphPad Prism 7.0.
Lentivirus packaging vectors pMDLg/pRRE, pRSV-Rev, and pVSV-G were obtained from Prof. Han Jiahuai’s lab (Xiamen University). Lentiviruses were produced using 3rd-generation lentivirus packaging plasmids transiently transfected into HEK293T cells with the constructs of interest using 0.25 M CaCl2. Media was changed after 16 h, and supernatants containing infectious virus particles were harvested 24 h later. A second viral harvest was made following a further 24 h incubation with fresh media. Virus containing supernatant was filtered through a […], and stored at 4 °C or −80 °C until being used. Typically, A549 cells were seeded into 10 cm cell culture dishes at 4 ~ 8 × 10^5 cells/cm^2. An equivalent volume of virus containing culture medium was added along with polybrene (Sigma) to a final concentration of 10 µg/mL. Cells were incubated at 37 °C for 20 h, before they were washed and resuspended in fresh culture media. The expression level of BCL-2 was measured by qPCR and western blot methods.

Several values for one entry are separate records, joined by “and”; a condition that tells them apart may be missing. Equal entries are not always repeated.

On to `O=C(c1cc(-c2cc3c(cc2C(=O)N2Cc4ccccc4C[C@H]2CN2CCOCC2)OCO3)n2c1CCCC2)N(c1ccccc1)c1ccc(O)cc1` [S55746], for which the BCL2/G101V inhibiton rate was 8% and 4.44% and 2.43% and 0.638% and 1% and 2% (3.125 uM); 13% and 10% and 7.56% and 8% and 9% (6.25 uM); 26% and 24% and 22% and 23% and 21% (12.5 uM); 24% and 23% and 22% and 21% (25 uM); 39% and 38% and 36% and 35% and 34% (50 uM); 46% and 45% and 42% (100 uM). Under “200 uM”, the BCL2/G101V inhibiton rate was 48% and 49% and 45% and 44%. For the same molecule, the raw luminescence reading (3.125 uM) was 671600 and 698900 and 713600 and 726700 and 723800 and 716000; the raw luminescence reading (6.25 uM) was 633100 and 639000 and 656800 and 676100 and 673100 and 668300; the raw luminescence reading (12.5 uM) was 539700 and 558400 and 568300 and 571800 and 566400 and 579500; the raw luminescence reading (25 uM) is 553400 and 560600 and 571800 and 579800 and 580700 and 578200; the raw luminescence reading (50 uM) is 444500 and 453000 and 466400 and 464700 and 472100 and 479600; the raw luminescence reading (100 uM) was 392800 and 395900 and 399700 and 397700 and 405800 and 422300. The raw luminescence reading (200 uM) is 382600 and 370800 and 376000 and 400600 and 410900.
